45 compounds from patent US8058243B2, “Method for treating a brain cancer with ifenprodil” (HSC Research and Development Limited Partnership, priority 2006, dated 2011) can be followed below.

In this assay the test system is murine neural precursor cells (neurosphere cultures). As to the kind of experiment: HTS of LOPAC library against secondary neurosphere cultures, MTT proliferation assay at 3 μM, day 7 (z score, P value). In kind it is cell-based, mouse. (Tetrazolium dyes change colour on reduction, which living cells bring about.)
The mark [1] stands for this setting: LOPAC library screen, 3 μM, MTT, neurosphere cultures.
Setting [2] is: LOPAC primary screen, neurosphere MTT proliferation, 3 μM, day 7.
Where [3] appears, read: yes = significantly inhibited neurosphere proliferation (P<0.01) in the primary screen.
Where [4] appears, read: yes/no: significantly inhibited neurosphere proliferation (P<0.01) in the primary screen.
Setting [5] is: LOPAC library screen at 3 μM, secondary neurosphere cultures, MTT.
[6] abbreviates: yes/no: significantly inhibited neurosphere proliferation (P<0.01) in primary screen.
Where [7] appears, read: primary LOPAC screen, 3 μM, MTT, neurosphere proliferation.
The mark [8] stands for this setting: yes/no: significantly inhibited neurosphere proliferation in the primary screen.
Setting [9] is: LOPAC screen, neurosphere MTT proliferation, 3 μM, day 7.
The mark [10] stands for this setting: LOPAC library screen, 3 μM, MTT, secondary neurosphere cultures, day 7.
Setting [11] is: yes/no: significantly inhibited neurosphere proliferation in primary screen.

Counter-ions that a name gives are not always drawn. Like-named read-outs stand apart in the source and are kept apart here.

For `N=C(N)NCCCCN.O=S(=O)(O)O` [Agmatine sulfate], under setting [1], the “Z Score” value came to 0.5881. Also, the Z score under setting [2] is recorded as 0.588. Further, the Activity result under setting [3] is “no”.

Regarding `Br.CCCN(CCC)[C@@H]1CCc2ccc(O)cc2C1` [R-(+)-7-Hydroxy-DPAT hydrobromide], the “Z Score” value is listed as −2.59. In addition, the Z score under setting [2] is recorded as −2.590. The Activity entry under setting [4] is “yes”.

For `CC[N+](C)(CC)CC(=O)Nc1c(C)cccc1C.[Cl-]` [Lidocaine N-methyl hydrochloride], under setting [5], the “Z Score” value is −0.6828. Also, the Z score under setting [2] is reported as −0.683. Under setting [6], the Activity result is on record as “no”.

`NC[C@@H]1O[C@H](O[C@H]2[C@@H](O)[C@H](O[C@@H]3[C@@H](O)[C@H](N)C[C@H](N)[C@H]3O[C@H]3O[C@H](CO)[C@@H](O)[C@H](O)[C@H]3N)O[C@@H]2CO)[C@H](N)[C@@H](O)[C@@H]1O` [Paromomycin sulfate]: the “Z Score” value under setting [1] was 0.821.

`C[Se]C[C@H](N)C(=O)O.Cl` [Se-(methyl)selenocysteine hydrochloride]: the “Z Score” value was 0.4116. The same compound had a Z score under setting [2] of 0.412. Under setting [3], the Activity result was “no”.

On to `CC(C)(CO)Cc1cc(C(C)(C)C)c(O)c(C(C)(C)C)c1` [CGP-7930], for which the “Z Score” value is −0.411. This compound displayed a Z score under setting [7] of −0.411. The Activity result under setting [8] was “no”.

As for `NC(=O)NO` [Hydroxyurea], the “Z Score” value under setting [1] is on record as 1.131. Under setting [2], this compound registered a Z score of 1.131. For the same compound, the Activity entry under setting [6] is “no”.

`CN(C(=O)Cc1ccc(Cl)c(Cl)c1)C(CN1CCCC1)c1cccc(OCC(=O)O)c1.Cl` (centres unmarked) [ICI 204,448 hydrochloride]: the “Z Score” value is recorded as −0.3636. In addition, the Z score under setting [2] is reported as −0.364. Besides, the Activity result under setting [6] is given as “no”.

Regarding `NC1C=CC=C(C(=O)O)C1` (racemic) [Gabaculine hydrochloride], the “Z Score” value was −2.256. Besides, under setting [7], the Z score is −2.256. Moreover, the Activity result under setting [8] is listed as “no”.

Consider `O=C(O)/C=C/c1ccc(O)c(O)c1` [Caffeic Acid], for which the “Z Score” value under setting [1] was 0.3199. Under setting [9], this compound yielded a Z score of 0.320. Under setting [6], the Activity result is “no”.

With `C[N+]1(C)[C@@H]2CC[C@H]1C[C@@H](OC(=O)C(CO)c1ccccc1)C2` (some centres unmarked) [Atropine methyl bromide], the “Z Score” value under setting [5] is −0.8716. Further, the Z score under setting [2] is listed as −0.872. Moreover, the Activity entry under setting [3] is “no”.

Consider `N.N.N.Nc1ncnc2c1ncn2C1OC(COP(=O)(O)OP(=O)(O)OP(=O)(O)OP(=O)(O)OC[C@H]2O[C@@H](n3cnc4c(N)ncnc43)C(O)C2O)[C@@H](O)C1O` (stereo in doubt), for which the “Z Score” value under setting [5] was −0.2867. This compound also displayed a Z score under setting [9] of −0.287. Also, the Activity result under setting [6] is listed as “no”.

Consider `CCCCCCCCCCCCCCCCOCC(COCC(F)(F)F)OP(=O)(O)OC` (centres unmarked) [MJ33], for which the “Z Score” value is on record as 1.364. The Z score under setting [2] worked out at 1.364. Further, the Activity entry under setting [3] is listed as “no”.

With `COc1ccc(OC)c(C(O)C(C)N)c1` (centres unmarked) [Methoxamine hydrochloride], the “Z Score” value under setting [10] is −3.255. Under setting [2], the Z score was −3.255. In addition, the Activity result under setting [4] was “yes”.

With `NS(=O)(=O)c1cccc2c1c([N+](=O)[O-])cc1nc([O-])c([O-])nc12.[Na+].[Na+]` [NBQX disodium], under setting [10], the “Z Score” value is −1.675. The compound also displayed a Z score under setting [2] of −1.675. In addition, under setting [11], the Activity entry is reported as “no”.

On to `CN1CCN(C2Cc3ccccc3Sc3ccc(Cl)cc32)CC1.O=C(O)/C=C\C(=O)O` (centres unmarked) [(B1)-Octoclothepin maleate], for which the “Z Score” value is 1.473.

As to `C#CCn1c(=O)c2c(ncn2C)n(C)c1=O` [3,7-Dimethyl-I-propargylxanthine], the “Z Score” value was determined as 1.454. Further, the Z score under setting [9] was 1.454. Under setting [6], the Activity result was “no”.

For the compound `Nc1nc2c(nc(Br)n2[C@@H]2O[C@@H]3COP(=O)([O-])O[C@H]3[C@H]2O)c(=O)[nH]1.[Na+]` [8-Bromo-cGMP sodium], the “Z Score” value is −1.005. This compound also gave a Z score under setting [7] of −1.005. Under setting [8], the Activity entry was “no”.

Consider `CC(C)[C@@H]1NC(=O)[C@H](CCCCN)NC(=O)[C@@H](Cc2c[nH]c3ccccc23)NC(=O)[C@H](Cc2ccc(O)cc2)NC(=O)[C@H](C)N(C)C(=O)[C@H](Cc2ccccc2)NC1=O` [Seglitide], for which, under setting [5], the “Z Score” value is −0.662. Under setting [2], this compound yielded a Z score of −0.662. Further, the Activity entry under setting [11] is given as “no”.

As to `CCCCCCC(C)(C)c1ccc([C@@H]2C[C@H](O)CC[C@H]2CCCO)c(O)c1` [CP55940], the “Z Score” value is listed as 1.396. The compound also showed a Z score under setting [7] of 1.396. The Activity result under setting [8] is reported as “no”.

Consider `CCCCS(=N)(=O)CCC(N)C(=O)O` [L-Buthionine-sulfoximine], for which, under setting [1], the “Z Score” value is given as 0.5134. Moreover, the Z score under setting [9] stood at 0.513. Besides, the Activity result under setting [6] was “no”.

As for `C1CCc2nnnn2CC1` [Pentylenetetrazole], under setting [5], the “Z Score” value is −0.9274. The compound further yielded a Z score under setting [2] of −0.927. Besides, the Activity entry under setting [3] is “no”.

In the case of `CCCN1CCC[C@@H]2Cc3nc(N)ncc3C[C@H]21` [Quinelorane dihydrochloride], under setting [2], the Z score is −1.567. Besides, the Activity result under setting [11] is “no”.

Regarding `Nc1ncn([C@@H]2O[C@H](CO)[C@@H](O)[C@H]2O)c(=O)n1` [5-azacytidine], the “Z Score” value under setting [10] is listed as −1.398. The Z score under setting [7] is on record as −1.398. Further, the Activity result under setting [8] is recorded as “no”.

With `CC1(C(=O)O)C2CCC(O2)C1(C)C(=O)O` (centres unmarked) [Cantharidic Acid], the “Z Score” value is −0.5529. This compound had a Z score under setting [9] of −0.553. Also, the Activity entry under setting [6] is on record as “no”.

Regarding (−)-Naproxen sodium, the “Z Score” value under setting [1] is given as 0.6024. Besides, under setting [2], the Z score is on record as 0.602. Further, the Activity entry under setting [3] is “no”.

On to `CNc1ncnc2c1ncn2[C@@H]1O[C@H](CO)[C@@H](O)[C@H]1O` [N6-Methyladenosine], for which, where the note is “168 h, 3 µM”, the “Z Score” value is on record as 0.7424 and the Z score turned out to be 0.742. Under setting [3], the Activity result was “no”.

Take `N[C@@H]1CONC1=O` [D-Cycloserine]: the “Z Score” value under setting [10] is −1.24. The compound further gave a Z score under setting [9] of −1.240. For the same compound, the Activity result under setting [6] is recorded as “no”.

Regarding `O=C(/C=C/c1ccc(O)c(O)c1)OCCc1ccccc1` [Caffeic acid phenethyl ester], for the setting “168 h, 3 µM”, the “Z Score” value worked out at 1.306 and the Z score was 1.306. Also, the Activity entry under setting [6] is “no”.

As to `CC(C)Oc1cccnc1N(C)C1CCN(Cc2ccccc2)CC1.O=C(O)/C=C\C(=O)O` [U-101958 maleate], the “Z Score” value was −2.065. This compound displayed a Z score under setting [7] of −2.065. Further, the Activity result under setting [8] is on record as “no”.

For `CCn1ccnc1CC1COc2ccccc2O1` (centres unmarked) [Imiloxan hydrochloride], under setting [5], the “Z Score” value is −0.9879. Also, the Z score under setting [2] is recorded as −0.988. The Activity result under setting [6] is given as “no”.

As to `CP(=O)(O)C1=CCNCC1` [TPMPA], the “Z Score” value is listed as 0.8742. The Z score under setting [7] is listed as 0.874. Also, the Activity entry under setting [8] is given as “no”.

For `N[C@@H](CS(=O)O)C(=O)O` [L-Cysteinesulfinic Acid], the “Z Score” value under setting [1] came out at 1.458. The Z score under setting [9] is listed as 1.458. Besides, the Activity result under setting [6] is listed as “no”.

Hydroxytacrine maleate: the “Z Score” value is listed as −0.2043. The Z score under setting [2] is given as −0.204. In addition, the Activity result under setting [6] was “no”.

Turning to `O=C(N[C@@H](Cc1ccccc1)C(=O)CCl)OCc1ccccc1` [Z-L-Phe chloromethyl ketone], the “Z Score” value is reported as −2.901. Besides, the Z score under setting [2] is −2.901. The Activity entry under setting [4] was “yes”.

On to `CN1[C@@H]2CC[C@H]1C[C@@H](OC(=O)C(CO)c1ccccc1)C2` (some centres unmarked) [Atropine sulfate], for which the Activity result was “no”, the “Z Score” value is on record as 1.244 and the Z score was determined as 1.244.

With `CC[C@@]1(O)C(=O)OCc2c1cc1n(c2=O)Cc2cc3ccccc3nc2-1` [(S)-(+)-Camptothecin], under setting [10], the “Z Score” value is recorded as −9.67. Under setting [2], this compound registered a Z score of −9.670. Also, the Activity entry under setting [3] is “yes”.

Take m-Iodobenzylguanidine hemisulfate: the Activity result was “yes”, the “Z Score” value is −2.564 and the Z score is recorded as −2.564.

As to `CC1=NS(=O)(=O)c2cc(Cl)ccc2N1` [Diazoxide], the “Z Score” value under setting [1] stood at 0.04511. Under setting [9], this compound displayed a Z score of 0.045. The Activity result under setting [6] is listed as “no”.

Turning to `COc1cc(C(O)CN)ccc1O.Cl` (centres unmarked) [(B1)-Normetanephrine hydrochloride], the “Z Score” value under setting [10] is −1.796.

Take `CC1(C)CCC=[N+]1[O-]` [5,5-Dimethyl-1-pyrroline-N-oxide]: for the setting “168 h, 3 µM”, the “Z Score” value is on record as −1.666 and the Z score is reported as −1.666. Moreover, the Activity result under setting [6] is “no”.

`N#C/C(=C\c1ccc(O)c(O)c1)C(N)=S` [Tyrphostin 47]: the “Z Score” value was 0.1775. Under setting [7], the Z score is listed as 0.178. The Activity result under setting [8] is reported as “no”.

Turning to `Br.Oc1ccc(C2CNCc3sccc32)cc1O` (centres unmarked) [SKF 89626], the Activity result is given as “no” and the “Z Score” value was −0.04369. The same compound registered a Z score under setting [2] of −0.044.

Turning to `O=c1[nH]c2ccccc2c2ccccc12` [6(5H)-Phenanthridinone], where the note is “168 h, 3 µM”, the “Z Score” value was 0.6765 and the Z score stood at 0.677. Further, under setting [11], the Activity result is given as “no”.

Turning to `CC(=O)NNC(=O)N1Cc2ccccc2Oc2ccc(Cl)cc21` [SC 19220], the “Z Score” value was −1.64. Under setting [2], this compound showed a Z score of −1.640. For the same compound, under setting [11], the Activity entry is recorded as “no”.
